{"source": "patent US8288444B2", "about": "(Codman & Shurtleff, Inc., priority 2008, dated 2012)", "key": {"[1]": {"conditions": "glycinate ester of the parent named in the row; cited from earlier work"}, "[2]": {"conditions": "ester prodrug vs parent estradiol"}, "[3]": {"conditions": "cited from earlier work"}, "[4]": {"conditions": "cited from earlier work", "remark": "listed apart in the source"}, "[5]": {"test": "carbamazepine peak brain tissue concentration by route (Barakat)"}, "[6]": {"system": "PC 12 cells, βA (25-35)", "test": "in vitro protection of PC 12 cells against beta amyloid (25-35) insult", "assay_type": "cell-based", "conditions": "for potency as neuroprotectant against beta amyloid relative to curcumin: both peptides", "from_the_text": "Park, J. Nat. Prod., 65, 9 Sep."}, "[7]": {"system": "UGT", "conditions": "Caco-2 cells; cited from earlier work"}, "[8]": {"target": "amyloid beta oligomers (Homo sapiens, UniProt P05067)", "sequence (P05067 672-713 limits assumed)": "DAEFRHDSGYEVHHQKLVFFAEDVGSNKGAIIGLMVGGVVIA", "conditions": "cited from earlier work; for prevention of toxic beta amyloid oligomer formation in vitro: Yang"}, "[9]": {"system": "Pgp", "conditions": "freshly-plated and 72 hour-cultured hepatocytes; dose-dependent; cited from earlier work"}, "[10]": {"system": "differentiated neuroblastoma cells", "conditions": "Yang 2005; cited from earlier work"}, "[11]": {"system": "antigen-stimulated spleen cytotoxic T-lymphocyte proliferation", "conditions": "oral pretreatment with curcumin before MPA administration; mice; cited from earlier work"}, "[12]": {"system": "middle aged female Sprague-Dawley rats", "conditions": "500 ppm dietary curcumin; Frautschy 2001; cited from earlier work"}, "[13]": {"system": "Alzheimer's Transgenic mice", "conditions": "160 ppm in the diet; Lim 2001; cited from earlier work"}}, "note": "Where two headings read alike, the source gives them in different places."}
{"compound": "17β-estradiol", "values": [{"measurement": "Half-life Of glycinate ester In plasma", "setting": "[1]", "value": "1 to 2", "unit": "min"}]}
{"compound": "CCN(CC)CCC(=O)Oc1ccc2c(c1)CC[C@@H]1[C@@H]2CC[C@]2(C)[C@@H](O)CC[C@@H]12.Cl", "note": "[3-DEAPE2HCl, 3-N,N-diethylamino propionyl ester hydrochloride]", "values": [{"measurement": "increase in water solubility", "setting": "[2]", "value": "> 1000", "unit": "fold"}, {"measurement": "water solubility of estradiol modified with the moiety", "setting": "[3]; Al-Ghananeem", "value": "about 20 mg/ml"}]}
{"compound": "NC(=O)N1c2ccccc2C=Cc2ccccc21", "note": "[Carbamazepine]", "values": [{"measurement": "Carbamazepine Peak Brain Tissue", "setting": "[4]; Intranasal, 0.2 mg/kg", "value": 12, "unit": "µg/g"}, {"measurement": "Carbamazepine Peak Brain Tissue", "setting": "[4]; Intravenous, 8.0 mg/kg", "value": 4, "unit": "µg/g"}, {"measurement": "Carbamazepine Peak Brain Tissue", "setting": "[4]; Oral, 16 mg/kg", "value": 3, "unit": "µg/g"}, {"measurement": "Carbamazepine Peak Brain Tissue, ~uM", "setting": "[5]; Intranasal, 0.2 mg/kg", "value": "~48", "unit": "µM"}, {"measurement": "Carbamazepine Peak Brain Tissue, ~uM", "setting": "[5]; Intravenous, 8.0 mg/kg", "value": "~16", "unit": "µM"}, {"measurement": "Carbamazepine Peak Brain Tissue, ~uM", "setting": "[5]; Oral, 16 mg/kg", "value": "~12", "unit": "µM"}]}
{"compound": "COc1cc(/C=C/C(=O)COC(=O)/C=C/c2ccc(O)c(OC)c2)ccc1O", "note": "[compound 31, 4″-(3′″-methoxy-4′″-hydroxyphenyl)-2″-oxo-3″-enebutanyl3-(3′-methoxy-4′ hydroxyphenyl) propenoate]", "values": [{"measurement": "potency as neuroprotectant against beta amyloid relative to curcumin", "setting": "[6]; analysis of the Park data", "value": "~5", "unit": "fold"}]}
{"compound": "COc1cc(C=CC(=O)CC(=O)C=Cc2ccc(O)cc2)ccc1O", "note": "[compound 32, 1-(4-hydroxy-3-methoxyphenyl)-7-(4-hydroxyphenyl)-1,6-heptadiene-3,5-dione]", "values": [{"measurement": "potency as neuroprotectant against beta amyloid relative to curcumin", "setting": "[6]; analysis of the Kim data", "value": "~1.5", "unit": "fold"}]}
{"compound": "O=C(C=Cc1ccc(O)cc1)CC(=O)C=Cc1ccc(O)cc1", "note": "[compound 33, 1,7-bis(4-hydroxyphenyl)-1,6-heptadiene-3,5-dione]", "values": [{"measurement": "potency relative to natural curcumin in surviving toxic insult by β amyloid", "setting": "[6]", "value": "about twice as potent"}, {"measurement": "potency as neuroprotectant against beta amyloid relative to curcumin", "setting": "[6]; analysis of the Kim data", "value": "~2", "unit": "fold"}]}
{"compound": "O=C(C=Cc1ccc(O)cc1)CC(=O)CCc1ccc(O)cc1", "note": "[compound 34, 1,7-bis(4-hydroxyphenyl)-1-heptene-3,5-dione]", "values": [{"measurement": "potency as neuroprotectant against beta amyloid relative to curcumin", "setting": "[6]; analysis of the Park data", "value": "~10", "unit": "fold"}]}
{"compound": "COc1cc(/C=C/C(=O)CC(=O)/C=C/c2ccc(O)c(OC)c2)ccc1O", "note": "[curcumin, (E,E)-1,7-bis(4-hydroxy-3-methoxyphenyl)-1,6-heptadiene-3,5-dione]", "values": [{"measurement": "inhibition of UGT activity in the conjugation of 1-naphthol", "setting": "[7]", "value": "moderate inhibition"}, {"measurement": "prevention of toxic beta amyloid oligomer formation in vitro", "setting": "[8]; 0.25-4 uM curcumin", "value": "only minimally prevent"}, {"measurement": "prevention of toxic beta amyloid oligomer formation in vitro", "setting": "[8]; 16-64 uM curcumin", "value": "completely prevent"}, {"measurement": "curcumin concentration that inhibits the in vitro formation of amyloid beta oligomers", "setting": "[8]; in vitro, Yang 2005", "value": "0.1 to 1.0", "unit": "µM"}, {"measurement": "solubility in water", "setting": "[3]", "value": "insoluble in water"}, {"measurement": "solubility in water (parent compound)", "setting": "[3]", "value": "about 0.004 mg/ml"}, {"measurement": "Rhodamine-123 (R-123) efflux", "setting": "[9]", "value": "inhibited"}, {"measurement": "curcumin concentration that blocks the in vitro toxicity of Aβ1-42 oligomers", "setting": "[10]", "value": "0.1 to 1.0", "unit": "µM"}, {"measurement": "increase in immunosuppression of antigen-stimulated spleen cytotoxic T-lymphocyte proliferation", "setting": "[11]", "value": "six-fold increase"}, {"measurement": "reduction of amyloid beta deposits induced by beta amyloid infusion", "setting": "[12]", "value": "about 80%"}, {"measurement": "reduction of beta amyloid plaque burden", "setting": "[13]", "value": "30-40%"}, {"measurement": "reduction of the amount of soluble beta amyloid", "setting": "[13]", "value": 43, "unit": "%"}]}
